Experimental data reported in patent publication US20020076452A1, “Combinations of sesquiterpene lactones and ditepene lactones or triterpenes for synergistic inhibition of cyclooxygenase-2” (Ashni Naturaceuticals, Inc., priority 2000, published 2002).

Tests used:
COX-2 [1] = biological target: T1, COX-2 (Mus musculus, UniProt Q05769); assay: cell-based
T1 sequence (Q05769 18-604): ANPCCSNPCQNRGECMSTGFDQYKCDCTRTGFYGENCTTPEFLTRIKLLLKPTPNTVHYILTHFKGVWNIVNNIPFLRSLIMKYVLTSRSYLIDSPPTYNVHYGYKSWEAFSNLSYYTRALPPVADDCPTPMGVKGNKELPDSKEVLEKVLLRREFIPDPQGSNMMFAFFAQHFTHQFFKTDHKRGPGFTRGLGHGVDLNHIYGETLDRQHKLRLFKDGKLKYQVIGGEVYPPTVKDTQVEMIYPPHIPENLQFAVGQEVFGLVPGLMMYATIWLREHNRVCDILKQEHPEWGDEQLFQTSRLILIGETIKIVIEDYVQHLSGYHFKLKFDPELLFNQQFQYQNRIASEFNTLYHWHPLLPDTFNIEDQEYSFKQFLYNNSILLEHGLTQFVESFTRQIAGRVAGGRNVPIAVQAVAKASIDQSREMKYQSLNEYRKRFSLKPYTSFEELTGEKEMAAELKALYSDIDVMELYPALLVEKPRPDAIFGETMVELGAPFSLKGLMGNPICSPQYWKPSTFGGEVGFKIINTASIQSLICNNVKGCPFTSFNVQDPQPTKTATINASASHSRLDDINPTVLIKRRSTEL
Method: Inhibition of COX-2 Mediated Production of PGE2 in RAW 264.7 Cells
General Procedure—RAW 264.7 cells, obtained from ATCC, were grown in DMEM medium and maintained in log phase growth.
On day one of the experiment, the log phase 264.7 cells were plated at 8×10^4 cells per well in 0.2 mL growth medium per well in a 96-well tissue culture plate. After 6 to 8 hours post plating, 100 μL of growth medium from each well was removed and replaced with 100 μL fresh medium. A 1.0 mg/mL solution of LPS, which was used to induce the expression of COX-2 in the RAW 264.7 cells, was prepared by dissolving 1.0 mg of LPS in 1 mL DMSO.
On day two of the experiment, the test materials were prepared as 1000×stock in DMSO. For example, if the final concentration of the test material was to be 10 μg/mL, a 10 mg/mL stock was prepared by dissolving 10 mg of the test material in 1 mL of DMSO. Fresh test materials were prepared on day 2 of the experiment. In 1.7 mL microfuge tubes, 1 mL DMEM without FBS was added to obtain test concentrations of 0.05, 0.10,0.5, and 1.0 μg/mL. 2 μL of the 1000×DMSO stock of the test material was added to the 1 mL of medium without FBS. The tube contained the final concentration of the test material was concentrated 2-fold. The tube was placed in incubator for 10 minutes to equilibrate.
One-hundred mL of medium was removed from each well of the cell plates prepared on day one. […]

COX-2 [2] = assay: Inhibition of COX-2 enzyme protein expression in stimulated Jurkat cells (western blot); type: cell-based, Human; conditions: in the absence and presence of arachidonic acid, dose-range tested
From the text: Chemicals: Anti-COX-2 antibodies may be purchased from Upstate Biotechnology (Lake Placid, N.Y.). Parthenolide and andrographolide may be obtained from Sigma (St. Louis, Mo.). Arachidonic acid (AA), PMA and all other chemical may also be purchased from Sigma and are of the highest purity commercially available.
Human T cell lines: The Jurkat cell line is useful as a model for human T cells and may be obtained from the American Type Culture Collection (Bethesda, Md.). COX-2 is inducible in the Jurkat cell by PMA.
Cell plating: The Jurkat cells are propagated in suspension according to the instructions of the supplier. For experimentation, cells are seeded from a log-phase culture at a density of 1×10^5 cells per mL in 100 mm plates, 20 mL per plate, 3 plates per treatment. Serum concentration in the test medium is maintained at 0.5%.
Complete transfers are accomplished in 25-30 minutes at 500 mA. Membranes used for blotting are blocked by incubating in TBS (Tris buffered saline, 50 mM Tris, 150 mM NaCl, pH 7.5) containing 5% nonfat dry milk for 30 minutes at room temperature. COX-2 protein is visualized by incubation of the blots with the anti-COX-2 antibody in TBST (0.5% Tween 20 in TBS) for two hours and then a second incubation at room temperature with alkaline phosphatase-conjugated secondary antibody diluted 1:1000 in TBST for two hours. The enzymatic reaction is developed for 15 minutes. The molecular weight of COX-2 is estimated by adding a molecular weight standard to reference lanes and staining the membrane filters with amido black 10B.
Blots are translated into TIFF-formatted files with a Microtech 600GS scanner and quantified using Scan Analysis (BIOSOFT, Cambridge, UK). Summary scans are then printed and peak heights are measured directly from the figure. One density unit (Du) is defined as one mm of the resulting peak height.
Appropriate controls receive solvent only. […] Twenty-four hours after treatment, the cells are harvested, lysed and western blotting is done for the determination of COX-2 protein expression.

| Structure (SMILES) | IC50 (COX-2 [1]) [µM] | Inhibition of COX-2 protein expression (COX-2 [2]) |
| --- | --- | --- |
| C[C@H]1[C@H](C)CC[C@]2(C(=O)O)CC[C@]3(C)C(=CC[C@@H]4[C@@]5(C)CC[C@H](O)C(C)(C)[C@@H]5CC[C@]43C)[C@H]12 [Ursolic acid, ursolic acid] | 35.3 | does not inhibit |
| C=C1CC[C@@H]2[C@](C)(CO)[C@H](O)CC[C@@]2(C)[C@@H]1C/C=C1/C(=O)OC[C@H]1O [Andrographolide, andrographolide] | 34.8 | little effect |
| CC1(C)CC[C@]2(C(=O)O)CC[C@]3(C)C(=CC[C@@H]4[C@@]5(C)CC[C@H](O)C(C)(C)[C@@H]5CC[C@]43C)[C@@H]2C1 [Oleanolic acid, oleanolic acid] | – | does not inhibit |
